Measured values taken from EPA's CvTdb concentration-time database (doi:10.1093/toxsci/kfy020).

Tests used:
Experiment in all cases: concentration in plasma after dosing
rat [1] = conditions: dosed: Novaluron, 0.4000000000 mg/kg, iv, male, Sprague-Dawley
rat [2] = conditions: dosed: Novaluron, 2.0000000000 mg/kg, oral, male, Sprague-Dawley
rat [3] = conditions: dosed: Novaluron, 2.0000000000 mg/kg, oral, male, Sprague-Dawley; remark: listed apart in the source
rat [4] = conditions: dosed: Novaluron, 0.4000000000 mg/kg, iv, male, Sprague-Dawley; remark: listed apart in the source
rat [5] = conditions: dosed: Novaluron, 2.0000000000 mg/kg, oral, male, Sprague-Dawley; remark: listed apart in the source
rat [6] = conditions: Sprague-Dawley
rat [7] = conditions: dosed: Cyclanilide, 1.0000000000 mg/kg, oral, male, Sprague-Dawley
rat [8] = conditions: dosed: Cyclanilide, 0.2000000000 mg/kg, iv, male, Sprague-Dawley
rat [9] = conditions: dosed: Cyclanilide, 0.2000000000 mg/kg, iv, male, Sprague-Dawley; remark: listed apart in the source
rat [10] = conditions: dosed: Cyclanilide, 0.2000000000 mg/kg, iv, male, Sprague-Dawley; remark: listed apart in the source
rat [11] = conditions: dosed: Cyclanilide, 1.0000000000 mg/kg, oral, male, Sprague-Dawley; remark: listed apart in the source
rat [12] = conditions: dosed: Cyclanilide, 1.0000000000 mg/kg, oral, male, Sprague-Dawley; remark: listed apart in the source
rat [13] = conditions: dosed: Nilvadipine, 10.0000000000 mg/kg, oral, male, Sprague-Dawley
rat [14] = conditions: dosed: Imazalil, 1.0000000000 mg/kg, iv, male, Sprague-Dawley
rat [15] = conditions: dosed: Imazalil, 1.0000000000 mg/kg, iv, male, Sprague-Dawley; remark: listed apart in the source
rat [16] = conditions: dosed: Pyrithiobac sodium, 1.037 mg/kg, oral, male, Sprague-Dawley
rat [17] = conditions: dosed: Pyrithiobac sodium, 1.037 mg/kg, oral, male, Sprague-Dawley; remark: listed apart in the source

O=C(NC(=O)c1c(F)cccc1F)Nc1ccc(OC(F)(F)C(F)OC(F)(F)F)c(Cl)c1 (stereo not given) [Novaluron]
concentration in plasma [ng/mL]
Conditions	rat [1]	rat [2]	rat [3]	rat [4]	rat [5]
0.25 h	–	9.95	5.18	–	14
0.5 h	125	24	25.3	202	37.7
1 h	112	49.9	70.4	191	75
2 h	68.3	63	135	120	165
4 h	32.7	132	151	75.9	149
5 min	241	–	–	283	–
8 h	31.4	89.1	148	34.7	191
10 min	43.2	–	–	188	–
12 h	11.6	117	172	21.7	129
24 h	8.64	81.5	44.3	9.78	59.6
48 h	–	35	29.8	5.04	40.7
72 h	–	16.2	14.6	5.1	22.9

rat [6], dosed: Novaluron, male
Conditions	concentration in plasma [ng/mL]
0.25 h, 2.0000000000 mg/kg, oral	2.87
0.5 h, 0.4000000000 mg/kg, iv	194
0.5 h, 2.0000000000 mg/kg, oral	23.8
1 h, 0.4000000000 mg/kg, iv	176
1 h, 2.0000000000 mg/kg, oral	70.5
2 h, 0.4000000000 mg/kg, iv	188
2 h, 2.0000000000 mg/kg, oral	137
4 h, 0.4000000000 mg/kg, iv	121
4 h, 2.0000000000 mg/kg, oral	168
5 min, 0.4000000000 mg/kg, iv	252
8 h, 0.4000000000 mg/kg, iv	48.3
8 h, 2.0000000000 mg/kg, oral	199
10 min, 0.4000000000 mg/kg, iv	161
12 h, 0.4000000000 mg/kg, iv	21.8
12 h, 2.0000000000 mg/kg, oral	141
24 h, 0.4000000000 mg/kg, iv	15.9
24 h, 2.0000000000 mg/kg, oral	53.2
48 h, 0.4000000000 mg/kg, iv	6.27
48 h, 2.0000000000 mg/kg, oral	25.3
72 h, 0.4000000000 mg/kg, iv	2.8
72 h, 2.0000000000 mg/kg, oral	21.4

O=C(O)C1(C(=O)Nc2ccc(Cl)cc2Cl)CC1 [Cyclanilide]
concentration in plasma [ng/mL]
Conditions	rat [7]	rat [8]	rat [9]	rat [10]	rat [11]	rat [12]
0.25 h	100	–	–	–	1140	869
0.5 h	1120	1000	972	727	646	1060
1 h	1210	744	639	910	801	808
2 h	918	364	475	416	568	575
4 h	827	222	251	262	464	482
5 min	–	1520	1730	1560	–	–
8 h	507	71.9	77	81.1	336	200
10 min	–	1200	2250	1400	–	–
12 h	293	68.8	65.7	98.9	284	184
24 h	101	7.7	8	6.5	18.7	39.6
48 h	1.3	3.1	2.1	0.8	1.5	–
72 h	1.2	–	1.7	1.2	1.3	–

rat [6], dosed: Cyclanilide, male
Conditions	concentration in plasma [ng/mL]
0.25 h, 1.0000000000 mg/kg, oral	1720
0.5 h, 0.2000000000 mg/kg, iv	1140
0.5 h, 1.0000000000 mg/kg, oral	1470
1 h, 0.2000000000 mg/kg, iv	982
1 h, 1.0000000000 mg/kg, oral	1150
2 h, 0.2000000000 mg/kg, iv	553
2 h, 1.0000000000 mg/kg, oral	780
4 h, 0.2000000000 mg/kg, iv	412
4 h, 1.0000000000 mg/kg, oral	518
5 min, 0.2000000000 mg/kg, iv	1960
8 h, 0.2000000000 mg/kg, iv	156
8 h, 1.0000000000 mg/kg, oral	617
10 min, 0.2000000000 mg/kg, iv	1780
12 h, 0.2000000000 mg/kg, iv	84.1
12 h, 1.0000000000 mg/kg, oral	234
24 h, 0.2000000000 mg/kg, iv	28.9
24 h, 1.0000000000 mg/kg, oral	24.9
48 h, 0.2000000000 mg/kg, iv	2.5
48 h, 1.0000000000 mg/kg, oral	1
72 h, 0.2000000000 mg/kg, iv	3.2
72 h, 1.0000000000 mg/kg, oral	1.5

COC(=O)C1=C(C#N)NC(C)=C(C(=O)OC(C)C)C1c1cccc([N+](=O)[O-])c1 (stereo not given) [Nilvadipine]
rat [13]
Conditions	concentration in plasma [ng/mL]
0.25 h	271
0.5 h	160
1 h	75.8
2 h	99.2
4 h	27.8
6 h	22.1
8 h	15
10 h	1.26

concentration in plasma [ng/mL], rat [6], dosed: Nilvadipine
Conditions	0.25 h	0.5 h	1 h	2 h	4 h	5 min	6 h	8 h	10 h
0.1000000000 mg/kg, iv, female	16	8	4.43	2.48	0.674	27.3	–	–	–
0.1000000000 mg/kg, iv, male	11.8	7.16	3.5	2.19	0.824	29.2	0.387	–	–
10.0000000000 mg/kg, oral, male	34.6	44.3	14.6	10.7	3.01	–	4.89	2.84	12.2

C=CCOC(Cn1ccnc1)c1ccc(Cl)cc1Cl (stereo not given) [Imazalil]
concentration in plasma [ng/mL]
Conditions	0.5 h	1 h	2 h	4 h	5 min	10 min
rat [14]	33.3	22	6.8	5.3	162	71.5
rat [15]	23.8	12.2	6.6	3.4	125	73.5

concentration in plasma [ng/mL], rat [6], dosed: Imazalil, male
Conditions	0.25 h	0.5 h	1 h	2 h	4 h	5 min	10 min
1.0000000000 mg/kg, iv	–	25.6	20.7	7.2	3.6	139	63.9
5.0000000000 mg/kg, oral	9.7	11.4	7.9	1	–	–	–

COc1cc(OC)nc(Sc2cccc(Cl)c2C(=O)[O-])n1.[Na+] [Pyrithiobac sodium]
concentration in plasma [ng/mL]
Conditions	0.25 h	0.5 h	1 h	2 h	4 h	8 h	24 h
rat [16]	1380	1560	1090	437	112	31.9	0.833
rat [17]	1400	1190	1270	331	154	65.6	1.06

rat [6], dosed: Pyrithiobac sodium, 1.037 mg/kg, oral, male
Conditions	concentration in plasma [ng/mL]
0.25 h	1080
0.5 h	1060
1 h	1190
2 h	458
4 h	126
8 h	37
24 h	0.55
72 h	0.206
